Test system: Liver cancer HepG2/ADR tumor-transplanted nude mouse model
Test: Callback rate of serum and urine metabolic markers (targeted metabonomics, LC-MS/MS) in drug-resistant liver cancer nude mouse model
Assay type: in vivo, nude mice (nu/nu-BALB/c)
[1] = serum metabolic marker, 3 mg/kg, 0.2 ml tail vein injection once every three days, seven times, HepG2/ADR nude mice
[2] = urine metabolic marker, 3 mg/kg, 0.2 ml tail vein injection once every three days, seven times, HepG2/ADR nude mice

Description: Liver cancer HepG2/ADR tumor-transplanted nude mouse models were firstly established and divided into four groups with 30 mice in each group, and after one week of successful establishment of the model, the mice were administered in different methods:
Metabolic markers were quantified by a targeted metabonomics technology, and an efficacy of a drug for reversing tumor multidrug resistance to be evaluated was evaluated by a concentration of each metabolic marker.
Cell transplanting: ten nude mice without thymus, including five male mice and five female mice, were selected, after 10-day adaptation period, 0.2 ml of HepG2/ADR cells (cell concentration: 6×10^7 cells/ml) were subcutaneously injected into each nude mouse with a 23G sterile needle, and in order to prevent tumor cells from being destroyed and matrix gel from being solidified in the period, the injection should be completed as soon as possible. Before injection, the needle was shaken left and right to form an expanded subcutaneous cyst (because if the injection was performed to a specific area by not shaking the needle, the mixture could form a large cell mass, and ineffective perfusion of nutrients in a core of the mass into the cells could result in subsequent growth defects), and when the needle was taken out, the injector was rotated to prevent leakage of cell sap. After subcutaneous injection, the matrix gel was irreversibly solidified to form a red bulge, about 10 days later, the solidified matrix gel was eliminated, and the tumor cells were successfully inoculated, and after a tumor mass grew for three weeks, nude mice with the tumor of the same size (about 7 mm in diameter) were selected. The subcutaneous tumor mass was taken out, a peripheral part of the tumor mass was divided into small tumor masses of 2×2×2 mm, after the nude mice (nu/nu-BALB/c, half male nude mice and half female nude mice at six weeks old, n=30) were anesthetized with isoflurane, the small tumor masses were subcutaneously implanted into shoulders of the nude mice to make the tumor masses of liver cancer model mice similar in size and shape, thus reducing experimental errors caused by different tumor mass sizes. After successful transplantation, growth statuses of the model nude mice were observed and recorded every day, weights of the nude mice were recorded every two days, and tumor sizes (length and width) were measured with a vernier caliper.
Healthy group: only normal saline was administrated to 30 healthy nude mice without being inoculated with any tumor cells once every three days for a total of seven times, with a dose of 0.2 ml each time by an administration method of tail vein injection.
Negative control group: only normal saline was administrated to 30 liver cancer HepG2/ADR tumor-transplanted nude mouse models once every three days for a total of seven times, with a dose of 0.2 ml each time by an administration method of tail vein injection.
Mass spectra of standard substances of a-linolenic acid, 3-methylglutaric acid, 17-hydroxystearic acid, xanthurenic acid, indole-2-carboxylic acid and 3-furoic acid were measured to determine mass-spectrometric detection conditions of each metabolic marker.
A series of linear concentration samples of the standard substance of each metabolic marker were respectively measured using the detection conditions above to obtain a relationship between a peak area of a characteristic fragment particle peak and a concentration of each metabolic marker, and linear regression was performed to obtain a linear regression equation.

SMILES | Callback rate, 3-methylglutaric acid [1] [%] | Callback rate, A-linolenic acid [1] [%] | Callback rate, 3-furoic acid [2] [%] | Callback rate, Xanthurenic acid [2] [%] | Callback rate, indole-2-carboxylic acid [2] [%] | effect of reversing tumor drug resistance, judged from the callback rates (result in words, comparison of groups in HepG2/ADR nude mice)
COc1cccc2c1C(=O)c1c(O)c3c(c(O)c1C2=O)C[C@@](O)(C(=O)CO)C[C@@H]3O[C@H]1C[C@H](N)[C@H](O)[C@H](C)O1 [Positive control group, doxorubicin] | 13.69 | 17.56 | 12.30 | 19.08 | 12.73 | –
O=c1ccc2cc3ccoc3cc2o1 [psoralen] | – | – | – | – | – | really has the effect of reversing tumor drug resistance

Reference: patent publication US20210356447A1, “EFFICACY EVALUATION METHOD OF DRUG FOR REVERSING TUMOR MULTIDRUG RESISTANCE” (JINAN UNIVERSITY, priority 2018, published 2021)
